Where a SMILES comes first, the peptide text is derived from it.

Assay in all cases: Fluorescence Polarization Affinity Measurements.
Holding throughout (settings): pH 7.2; 22 °C

Experiment [1] deals with T1, Baculoviral IAP repeat-containing protein 2 [266-354] (Homo sapiens, UniProt Q13490).
T1 construct: 266-354
As to the method:
(§1) Samples for fluorescence polarization affinity measurements were prepared by addition of serial dilutions of target protein to each well containing antagonist and polarization probe in the buffer. Samples were read after 30-min incubation. Fluorescence polarization values were plotted as a function of the antagonist concentration, and the IC50 values were obtained by fitting the data to a four-parameter equation using KaleidaGraph software. Ki values for the antagonists were determined from the IC50 values.

In experiment [2] the target is T2, Baculoviral IAP repeat-containing protein 3 [252-340] (Homo sapiens, UniProt Q13489).
T2 construct: 252-340
The protocol:
as §1

Experiment [3] deals with T3, Complex of Baculoviral IAP repeat-containing protein 7 [1-159,S150G] and E3 ubiquitin-protein ligase XIAP [336-348] (Homo sapiens, UniProt Q96CA5, S150G).
T3 construct: 1-159; 336-348
The protocol: as §1

Experiment [4] addresses T4, E3 ubiquitin-protein ligase XIAP [241-356] (Homo sapiens, UniProt P98170).
T4 construct: 241-356
The protocol: as §1

In general, Ki refers to the dissociation constant of the complex between target and ligand, obtained from inhibition or displacement. Higher therefore signals lower affinity. `CN[C@@H](C)C(=O)N[C@H]1CCC[C@H]2SC[C@@H](C(=O)Nc3cc(C)nn3-c3ccccc3)N2C1=O` [(3R,6S,9aR)-N-(3-methyl-1-phenyl-1H-pyrazol-5-yl)-6-[(2S)-2-(methylamino)propanamido]-5-oxo-octahydroazepino[2,1-b][1,3]thiazole-3-carboxamide]: the Ki in experiment [1] was determined as 110 nM; in experiment [2], 490 nM.
As for `CC(C)[C@H](NC(=O)[C@H](C)N)C(=O)N1CCC[C@H]1C(=O)N[C@@H](Cc1c[nH]c2ccccc12)C(=O)O` [L-alanyl-L-valyl-L-prolyl-L-tryptophan] (H-AVPW-OH), the inhibition constant Ki in experiment [1] was found to be 30 nM; in experiment [2], 70 nM; in experiment [3], 40 nM; in experiment [4], 50 nM.
In the case of `CN[C@@H](C)C(=O)N[C@H]1CCC[C@H]2SC(C)(C)[C@@H](C(=O)Nc3cc(C)nn3-c3ccccc3)N2C1=O` [(3R,6S,9aR)-2,2-dimethyl-N-(3-methyl-1-phenyl-1H-pyrazol-5-yl)-6-[(2S)-2-(methylamino)propanamido]-5-oxo-octahydroazepino[2,1-b][1,3]thiazole-3-carboxamide], the inhibitory constant (Ki) in experiment [1] was 50 nM; in experiment [2], 130 nM.

The record behind these values is BindingDB's records for doi:10.1021/cb600276q (Genentech, 2006).
